Data on 1 compound can be found in patent US5338736A, “Angiotensin II receptor blocking 2,3,6-substituted quinazolinones” (American Cyanamid Company, priority 1993, dated 1994).

For orientation: pIC50 means the negative decadic logarithm of the IC50, by convention in mol/L.

For this assay, the target named is T1, Angiotensin II Receptor (Bos taurus, UniProt P25104).
T1 construct: The brownish tissue forming the adrenal cortex is scraped off and finely minced with scissors before homogenization; tissue Maxwell-Cohen (local slaughter house); host or cells: beef adrenal cortex, microsomal membranes
T1 sequence (P25104 1-359): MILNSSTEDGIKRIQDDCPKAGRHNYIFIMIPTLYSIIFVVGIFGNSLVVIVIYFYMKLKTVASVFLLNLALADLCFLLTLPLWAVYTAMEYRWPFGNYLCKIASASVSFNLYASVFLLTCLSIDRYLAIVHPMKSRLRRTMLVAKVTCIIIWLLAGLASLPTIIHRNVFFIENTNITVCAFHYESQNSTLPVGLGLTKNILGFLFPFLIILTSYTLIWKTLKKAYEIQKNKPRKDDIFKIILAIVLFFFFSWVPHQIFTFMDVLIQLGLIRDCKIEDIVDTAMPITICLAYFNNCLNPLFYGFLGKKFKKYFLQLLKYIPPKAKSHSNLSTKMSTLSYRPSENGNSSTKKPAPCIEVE
The assay is described as follows: Receptor Binding Assay: competition with [^125 I](Sar^1, Ile^8)AngII on adrenal cortex microsomal membranes. To be noted: beef adrenal cortex membranes, [^125 I](Sar^1, Ile^8)AngII, 60 min, room temperature, pH 7.4. Also noted: species or system beef. From the text:
Beef adrenals are obtained from a local slaughter house (Maxwell-Cohen). […] All unlabeled AngII analogs, Dimethylsulfoxide (DMSO), nucleotides, bovine serum albumin (BSA) are purchased from Sigma Chemical Co., St. Louis, Mo. U.S.A.
Approximately sixteen (16) to twenty (20) beef adrenal glands are processed as follows: fresh adrenal glands received on crushed ice are cleaned of fatty tissues and the tough membranes encapsulating the glands are removed and discarded. The brownish tissue forming the adrenal cortex is scraped off and finely minced with scissors before homogenization. Care is taken to avoid contamination with medullary tissue during dissection. The scraped cortices are suspended in twenty volumes of an ice-cold buffer medium consisting of 10 mM Tris.HCl (pH 7.4 at 22° C.) and containing 1.0 mM EDTA and 0.2M sucrose. Unless otherwise indicated, all subsequent operations are done at 4° C. […] The homogenate is centrifuged first at low speed (3,000× g) for 10 min. The resulting pellet is discarded and the supernatant fluid recentrifuged at 10,000× g for 15 minutes to give a P2 pellet. […] The translucent final pellet is harvested and combined in a small volume (20-50.0 ml) of 50.0 mM Tris.HCl buffer, pH 7.2. […] The pelleted membrane is reconstituted in 50.0 mM Tris.HCl buffer containing 0.1 mM of phenylmethylsulfonyl fluoride (PMSF) to give approximately a protein concentration of 2.5 mg per ml of tissue suspension. The membrane preparation is finally aliquoted in 1.0 ml volumes and stored at -70° C. until use in the binding assays.
Assays are performed in triplicate. The wells are left undisturbed for 60 min. at room temperature. […] The filter discs are washed with 10×1.0 ml of cold 0.9% NaCl to remove unbound ligand. […] This method is routinely used. The filters are removed from the filter grid and counted in a Parkard® Cobra Gamma Counter for 1 min. (Packard Instrument Co., Downers Grove, Ill., U.S.A.).

pIC50: −log10 of the molar value.

For `CCCCc1nc2ccc(C3CCC4CCCCC4O3)cc2c(=O)n1Cc1ccc(-c2ccccc2-c2nn[nH]n2)cc1` (stereo not shown) [Example 11], the pIC50 was 6.88.
